Results taken from PubChem BioAssay (NCI).
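Method: 48-hour compound exposure of cells in 96-well plates, five concentrations, linear interpolation of endpoints. At the TGI there is no net growth.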

Columns and labels:
Assay in all cases: NCI tumour cell line growth inhibition, 48 h
UACC-62 melanoma = tested on: UACC-62 melanoma
HL-60(TB) leukemia = tested on: HL-60(TB) leukemia
SR leukemia = tested on: SR leukemia
SK-MEL-28 melanoma = tested on: SK-MEL-28 melanoma
K-562 leukemia = tested on: K-562 leukemia
MCF7 breast = tested on: MCF7 breast
SNB-19 CNS = tested on: SNB-19 CNS
MOLT-4 leukemia = tested on: MOLT-4 leukemia
BT-549 breast = tested on: BT-549 breast
DU-145 prostate = tested on: DU-145 prostate
MALME-3M melanoma = tested on: MALME-3M melanoma
U251 CNS = tested on: U251 CNS
UACC-257 melanoma = tested on: UACC-257 melanoma
SK-MEL-5 melanoma = tested on: SK-MEL-5 melanoma
NCI-H226 lung = tested on: NCI-H226 lung
HCC-2998 colon = tested on: HCC-2998 colon
RXF 393 renal = tested on: RXF 393 renal
NCI-H460 lung = tested on: NCI-H460 lung
SF-268 CNS = tested on: SF-268 CNS
EKVX NSCLC = tested on: EKVX NSCLC
786-0 renal = tested on: 786-0 renal
SW-620 colon = tested on: SW-620 colon
MDA-N = tested on: MDA-N
HOP-92 NSCLC = tested on: HOP-92 NSCLC
SN12C renal = tested on: SN12C renal
SF-539 CNS = tested on: SF-539 CNS
HOP-62 NSCLC = tested on: HOP-62 NSCLC
NCI-H522 lung = tested on: NCI-H522 lung
SF-295 CNS = tested on: SF-295 CNS
M14 melanoma = tested on: M14 melanoma
SK-MEL-2 melanoma = tested on: SK-MEL-2 melanoma
T-47D breast = tested on: T-47D breast
ACHN renal = tested on: ACHN renal
HS 578T breast = tested on: HS 578T breast
TK-10 renal = tested on: TK-10 renal
HT29 colon = tested on: HT29 colon
PC-3 prostate = tested on: PC-3 prostate
MDA-MB-435 = tested on: MDA-MB-435
SNB-75 CNS = tested on: SNB-75 CNS
HCT-15 colon = tested on: HCT-15 colon
HCT-116 colon = tested on: HCT-116 colon
OVCAR-3 ovarian = tested on: OVCAR-3 ovarian
UO-31 renal = tested on: UO-31 renal
KM12 colon = tested on: KM12 colon
MDA-MB-231 breast = tested on: MDA-MB-231 breast
COLO 205 colon = tested on: COLO 205 colon
NCI/ADR-RES ovarian = tested on: NCI/ADR-RES ovarian
SK-OV-3 ovarian = tested on: SK-OV-3 ovarian
IGROV1 ovarian = tested on: IGROV1 ovarian
A549 NSCLC = tested on: A549 NSCLC
CCRF-CEM leukemia = tested on: CCRF-CEM leukemia
OVCAR-8 ovarian = tested on: OVCAR-8 ovarian
LOX IMVI melanoma = tested on: LOX IMVI melanoma
CAKI-1 renal = tested on: CAKI-1 renal
OVCAR-4 ovarian = tested on: OVCAR-4 ovarian
OVCAR-5 ovarian = tested on: OVCAR-5 ovarian
RPMI-8226 leukemia = tested on: RPMI-8226 leukemia
NCI-H23 lung = tested on: NCI-H23 lung

Measured: TGI

Nc1c(Cl)cc(-c2nc3ccccc3s2)cc1Cl
not listed: LOX IMVI melanoma | CAKI-1 renal | OVCAR-4 ovarian | OVCAR-5 ovarian | RPMI-8226 leukemia | NCI-H23 lung
> 100 µM: all other assays above

C[C@@]1(OC(=O)c2cc([N+](=O)[O-])cc([N+](=O)[O-])c2)C[C@@H]2CCCC[C@@H]21
not listed: RXF 393 renal | HOP-92 NSCLC | MDA-MB-435 | OVCAR-3 ovarian
> 100 µM: all other assays above
